Patent publication US8293909B2, “Compounds for the treatment of hepatitis C” (Bristol-Myers Squibb Company, priority 2008, dated 2012)

Columns and labels:
[1] = target: T1, HCV NS5B RdRp genotype 1b (Hepatitis C virus genotype 1b, UniProt Q9WMX2); test: HCV NS5B RdRp enzyme assay (standard / modified); format: biochemical; conditions: HCV NS5B genotype 1b
T1 construct: The protein was expressed with an 18 amino acid C-terminal truncation to enhance the solubility; made in house; host or cells: E. coli BL21(DE3), pET21a vector
In short: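 Genotype 1b NS5B with an 18-aa C-terminal truncation, expressed in E. coli, was tested by SPA incorporation of 3H-UTP (0.29 μM) on polyA/biotin-oligo-dT12. Standard assay: 28 nM enzyme, 6 nM template, 180 nM primer, 60 min at 30 °C, pH 7.5, 2% DMSO. Modified assay: 14 nM enzyme added to compound first, 0.2 nM template, 20 nM bead-precaptured primer, 4 h at 30 °C. IC50 used seven inhibitor concentrations.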

HCV replicon cells = test: HCV replicon assay (FRET or luciferase readout); format: cell-based; conditions: Hepatitis C virus
In short: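 Readout was NS3 protease cleavage of an EDANS/DABCYL FRET peptide (20 μM final) in lysed HCV replicon cells, or Renilla luciferase in reporter replicons. Background came from wells with the highest level of control protease inhibitor. EC50 marked the concentration giving 50% signal reduction.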

T1 sequence (Q9WMX2 2420-2992): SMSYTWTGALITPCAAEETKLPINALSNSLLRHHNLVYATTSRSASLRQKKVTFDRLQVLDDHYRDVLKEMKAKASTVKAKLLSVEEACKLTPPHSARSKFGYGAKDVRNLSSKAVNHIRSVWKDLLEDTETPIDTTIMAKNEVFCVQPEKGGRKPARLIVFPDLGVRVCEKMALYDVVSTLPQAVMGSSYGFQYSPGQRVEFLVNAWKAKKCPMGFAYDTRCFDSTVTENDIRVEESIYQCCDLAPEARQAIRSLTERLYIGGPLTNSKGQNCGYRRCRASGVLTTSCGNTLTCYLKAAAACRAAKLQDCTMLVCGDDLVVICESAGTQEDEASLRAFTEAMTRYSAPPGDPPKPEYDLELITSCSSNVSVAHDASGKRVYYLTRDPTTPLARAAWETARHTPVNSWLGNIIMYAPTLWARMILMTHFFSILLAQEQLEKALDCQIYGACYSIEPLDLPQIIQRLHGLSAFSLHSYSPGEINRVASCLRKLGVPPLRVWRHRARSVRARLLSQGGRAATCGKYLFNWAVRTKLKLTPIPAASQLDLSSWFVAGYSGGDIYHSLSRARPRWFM

SMILES | IC50 ([1]; Table 1) [nM] | EC50 (HCV replicon cells; Table 1) [nM] | IC50 ([1]; Table 2) [nM] | EC50 (HCV replicon cells; Table 2) [nM]
CNC(=O)c1c(-c2ccc(F)cc2)nn2ccc(OC)cc12 | > 10000 | > 10000 | – | –
CNC(=O)c1c(-c2ccc(F)cc2)nn2ccc(-c3cccc(C(=O)NC(C)(C)C)c3)cc12 | 250 to 1000 | 2 to 250 | – | –
CNC(=O)c1c(-c2ccc(F)cc2)nn2ccc(-c3cccc(C(=O)NC(C)(C)c4ccccc4)c3)cc12 | 2 to 250 | 2 to 250 | – | –
CNC(=O)c1c(-c2ccc(F)cc2)nn2cccc(N)c12 | > 10000 | > 10000 | – | –
COC(=O)c1c(-c2ccccc2)nn2ccc(-c3cccc(C(=O)NC(C)(C)c4ccccc4)c3)cc12 | > 10000 | > 10000 | – | –
CC(C)(NC(=O)c1cccc(-c2ccn3nc(-c4ccccc4)c(C(=O)O)c3c2)c1)c1ccccc1 | > 10000 | > 10000 | – | –
CNC(=O)c1c(-c2ccc(F)cc2)nn2ccc(NS(=O)(=O)c3ccc(OC(F)(F)F)cc3)cc12 | > 10000 | > 10000 | – | –
CNC(=O)c1c(-c2ccc(F)cc2)nn2cc(N(CCO)S(C)(=O)=O)ccc12 | > 10000 | > 10000 | – | –
CNC(=O)c1c(-c2ccccc2)nn2ccc(-c3cccc(C(=O)NC(C)(C)c4ccccc4)c3)cc12 | 2 to 250 | 2 to 250 | – | –
CNC(=O)c1c(-c2ccc(F)cc2)nn2cc(N(CCO)S(C)(=O)=O)c(-c3cccc(C(=O)NC(C)(C)c4ccccc4)c3)cc12 | 2 to 250 | 2 to 250 | – | –
CNC(=O)c1c(-c2ccc(F)cc2)nn2cc(-c3cccc(OC)c3)ccc12 | > 10000 | > 10000 | – | –
CNC(=O)c1c(-c2ccc(F)cc2)nn2cc(-c3ccc(OC)cc3)ccc12 | > 10000 | > 10000 | – | –
CCOc1ccccc1-c1ccc2c(C(=O)NC)c(-c3ccc(F)cc3)nn2c1 | > 10000 | > 10000 | – | –
CNC(=O)c1c(-c2ccc(F)cc2)nn2cc(NC(=O)C(F)(F)F)ccc12 | > 10000 | > 10000 | – | –
CNC(=O)c1c(-c2ccc(F)cc2)nn2ccc(NS(=O)(=O)c3cccc(OC)c3)cc12 | > 10000 | > 10000 | – | –
CNC(=O)c1c(-c2ccc(F)cc2)nn2ccc(NCc3ccccc3)cc12 | > 10000 | > 10000 | – | –
CNC(=O)c1c(-c2ccc(F)cc2)nn2ccc(NC(=O)c3cccc(OC)c3)cc12 | > 10000 | > 10000 | – | –
CNC(=O)c1c(-c2ccc(F)cc2)nn2ccc(NC(=O)c3ccccc3OC)cc12 | > 10000 | > 10000 | – | –
CNC(=O)c1c(-c2ccc(F)cc2)nn2ccc(NC(=O)c3ccc(OC)cc3)cc12 | > 10000 | > 10000 | – | –
CNC(=O)c1c(-c2ccc(F)cc2)nn2ccc(-n3ccc(C(=O)NC(C)(C)c4ccccc4)c3)cc12 | 1000 to 10000 | > 10000 | – | –
CNC(=O)c1c(-c2ccc(F)cc2)nc2ccc(-c3cccc(C(=O)O)c3)cn12 | > 10000 | > 10000 | – | –
CNC(=O)c1c(-c2ccc(F)cc2)nc2ccc(-c3cccc(C(=O)NC(C)(C)c4ccccc4)c3)cn12 | 2 to 250 | 2 to 250 | – | –
CNC(=O)c1c(-c2ccc(F)cc2)nc2ccc(-c3cccc(C(=O)NC4(c5ccccc5)CC4)c3)cn12 | 2 to 250 | 2 to 250 | – | –
CNC(=O)c1c(-c2ccc(F)cc2)n(C)c2ccc(-c3cccc(C(=O)NC(C)(C)c4ccccc4)c3)cc12 | > 10000 | > 10000 | – | –
CNC(=O)c1c(-c2ccc(F)cc2)sc2ccc(-c3cccc(C(=O)NC4(c5ccccc5)CCC4)c3)cc12 | 2 to 250 | 2 to 250 | – | –
CNC(=O)c1c(-c2ccc(F)cc2)sc2ccc(-c3cccc(C(=O)NC(C)(C)c4ccccc4)c3)cc12 | 2 to 250 | 250 to 1000 | – | –

SMILES | IC50 ([1]; Table 1) [nM] | EC50 (HCV replicon cells; Table 1) [nM] | IC50 ([1]; Table 2) [nM] | EC50 (HCV replicon cells; Table 2) [nM]
CNC(=O)c1c(-c2ccc(F)cc2)sc2ccc(-c3cccc(C(=O)NC4(c5ccccc5)CC4)c3)cc12 | 250 to 1000 | 1000 to 10000 | – | –
CNC(=O)c1c(-c2ccc(F)cc2)nn2cc(N(CCO)S(C)(=O)=O)c(OC)cc12 [drawing 50] | 1000 to 10000 | 1000 to 10000 | – | –
CNC(=O)c1c(-c2ccc(F)cc2)nc2ccc(-c3cccc(C(=O)NC(C)(C)C)c3)cn12 [drawing 77] | 250 to 1000 | 250 to 1000 | – | –
CNC(=O)c1c(-c2ccc(F)cc2)[nH]c2ccc(-c3cccc(C(=O)NC(C)(C)c4ccccc4)c3)cc12 [drawing 80] | 250 to 1000 | 250 to 1000 | – | –
CNC(=O)c1c(-c2ccc(F)cc2)sc2ccc(-c3cccc(C(=O)NC(C)(C)C)c3)cc12 [drawing 85] | > 4170 | 1000 to 10000 | – | –
CNC(=O)c1c(-c2ccc(F)cc2)nn2cc(N(CCO)S(C)(=O)=O)c(-c3cccc(C(=O)NC4(c5ccccn5)CC4)c3)cc12 [drawing 86] | 2 to 250 | 1000 to 10000 | – | –
CNC(=O)c1c(-c2ccc(F)cc2)nn2ccc(-c3cc(C(=O)NC4(c5ccccc5)CC4)ccc3C)cc12 [drawing 87] | 2 to 250 | 2 to 250 | – | –
CNC(=O)c1c(-c2ccc(F)cc2)nn2ccc(-c3cc(C(=O)NC4(c5ccccn5)CC4)ccc3C)cc12 [drawing 88] | 2 to 250 | 2 to 250 | – | –
CCN(c1cn2nc(-c3ccc(F)cc3)c(C(=O)NC)c2cc1-c1cccc(C(=O)NC(C)(C)c2ccccc2)c1)S(C)(=O)=O [drawing 92] | 2 to 250 | 2 to 250 | – | –
CNC(=O)c1c(-c2ccc(F)cc2)oc2ncc(-c3cc(C(=O)NC4(c5ccccn5)CC4)ccc3Cl)cc12 [drawing 113] | 2 to 250 | 2 to 250 | – | –
CNC(=O)c1c(-c2ccc(F)cc2)oc2ncc(-c3cc(C(=O)NC4(c5ccccn5)CC4)ccc3C)cc12 [drawing 116] | 2 to 250 | 2 to 250 | – | –
CNC(=O)c1c(-c2ccc(F)cc2)nn2ccc(-c3cc(C(=O)NC4(c5ccccc5)CC4)ccc3C)c(F)c12 [drawing 127] | 2 to 250 | 2 to 250 | – | –
CNC(=O)c1c(-c2ccc(F)cc2)nn2ccc(-c3cc(C(=O)NC4(c5ccccn5)CC4)ccc3C)c(F)c12 [drawing 130] | 2 to 250 | 2 to 250 | – | –
CNC(=O)c1c(-c2ccc(F)cc2)nn2ccc(-c3cc(C(=O)NC4(c5ccccc5)CC4)c(OC)cc3C)c(F)c12 [drawing 134] | 2 to 250 | 2 to 250 | – | –
CNC(=O)c1c(-c2ccc(F)cc2)nn2ccc(-c3cc(C(=O)NC4(c5ccccn5)CC4)c(OC)cc3C)c(F)c12 [drawing 135] | 2 to 250 | 2 to 250 | – | –
CNC(=O)c1c(-c2ccc(F)cc2)nc2ccc(C3CC3C(=O)NC3(c4ccccn4)CC3)cn12 (stereo not drawn) [drawing 159] | > 10000 | > 10000 | – | –
CNC(=O)c1c(-c2ccc(F)cc2)nn2ccc(-c3cc(C(=O)NC4(c5ccccc5)CC4)ccc3C)cc12 [drawing 173] | – | – | 4.75 | 2.37
CNC(=O)c1c(-c2ccc(F)cc2)nn2ccc(-c3cc(C(=O)NC4(c5ccccc5)CC4)c(OC)cc3C)c(F)c12 [drawing 174] | – | – | 10 | 3.92
CNC(=O)c1c(-c2ccc(F)cc2)nn2ccc(-c3cc(C(=O)NC4(c5ccccc5)CC4)cc(F)c3C)c(F)c12 [drawing 175] | – | – | 30 | 4.32
CCN(c1cn2nc(-c3ccc(F)cc3)c(C(=O)NC)c2cc1-c1cccc(C(=O)NC(C)(C)c2ccccc2)c1)S(C)(=O)=O [drawing 176] | – | – | 9.6 | 5.98
CNC(=O)c1c(-c2ccc(F)cc2)nn2ccc(-c3cc(C(=O)NC4(c5ccccn5)CC4)ccc3C)c(F)c12 [drawing 177] | – | – | 5 | 7.15
CNC(=O)c1c(-c2ccc(F)cc2)nn2ccc(-c3cc(C(=O)NC4(c5ccccn5)CC4)c(OC)cc3C)c(F)c12 [drawing 178] | – | – | 20 | 8.39
CNC(=O)c1c(-c2ccc(F)cc2)nn2ccc(-c3cc(C(=O)NC4(c5ccccn5)CC4)ccc3C)cc12 [drawing 179] | – | – | 5.15 | 10
CNC(=O)c1c(-c2ccc(F)cc2)nc2ccc(-c3cccc(C(=O)NC(C)(C)C)c3)cn12 [drawing 180] | – | – | 640 | 400
CNC(=O)c1c(-c2ccc(F)cc2)[nH]c2ccc(-c3cccc(C(=O)NC(C)(C)c4ccccc4)c3)cc12 [drawing 181] | – | – | 720 | 460
